Molecules are shown by their SMILES. Counter-ions that a name gives are not always drawn. Like-named read-outs stand apart in the source and are kept apart here.

The text below walks through data of patent US10211534B2, “Sildenafil solutions and methods of making and using same” (priority 2014, dated 2019).

Data set [1] in a line: solubility of sildenafil citrate in EtOH/water mixtures with and without acetone (Example 1). The settings on record: Table 1; sildenafil citrate remaining in solution after heating. It is filed as physicochemical.
Data set [2] in a line: spectrophotometric analysis at 228 nm before and after filtration via a 0.22 micron filter (Example 12). It is filed as physicochemical. The settings on record: at 18 mg/ml in 70% ethanol. The protocol:
A UV-VIS Genesys 10S Thermo Scientific spectrophotometer was used for the assay. Samples were placed in a UV Kurette Halbmicro/UV Cuvette semi micro [Cat no: 759150] for reading.
Because the reference describes measurements at μg/ml concentrations, both the filtered and unfiltered 18 mg/ml solutions were diluted to 9 μg/ml and 12.5 μg/ml and measured again.

The conditions of data set [3]: cited from earlier work.
The conditions of data set [4]: tablets or oral suspension; cited from earlier work.
[5] abbreviates: EMEA CHMP Assessment Report For Vizarsin.
Where [6] appears, read: Jordanian Pharmaceutical Manufacturing Co.

Consider `CCCc1nn(C)c2c(=O)[nH]c(-c3cc(S(=O)(=O)N4CCN(C)CC4)ccc3OCC)nc12` [sildenafil citrate], for which, in data set [1], the “Final conc. (After heating)” value was ≤ 35.7 mg/mL. Further, the “solubility as prepared in Example 1” value in data set [2] was “fully soluble”. In addition, in data set [3] (setting [5]), the solubility in acetone result is “insoluble”, the solubility in chloroform result was “insoluble”, the “solubility in dimethylsulfoxide (DMSO)” value is given as “soluble” and the solubility in ethanol result is recorded as “insoluble”. Moreover, the solubility in methanol result in data set [3] (setting [5]) is “soluble”. In data set [3] (setting [6]), the solubility in ethanol was ~1000 µg/mL and the “times less soluble in ethanol than in water” value is “about 3.5 times”. In addition, in data set [4], the absolute bioavailability result is on record as “about 41%”.
